Experimental data published in the CheMixHub ionic liquid set.

Assay: xn = mol fraction of the nth substance listed

CCCCCCCCCCCCOS(=O)(=O)[O-].[Na+] + Cc1ncc(C[n+]2csc(CCO)c2C)c(N)n1.Cl.[Cl-] + O
electrical conductivity [S/m], 101 kPa
Conditions	288.15 K	298.15 K	308.15 K	318.15 K
x1 = 7.35e-06, x2 = 0	0.00102	0.00389	0.00521	0.0057
x1 = 1.463e-05, x2 = 0	0.00278	0.00675	0.0087	0.00954
x1 = 2.184e-05, x2 = 0	0.00515	0.00896	0.012	0.0133
x1 = 2.898e-05, x2 = 0	0.00708	0.0117	0.0152	0.017
x1 = 3.604e-05, x2 = 0	0.00931	0.0145	0.0186	0.0208
x1 = 4.303e-05, x2 = 0	0.0116	0.0171	0.0219	0.0244
x1 = 4.997e-05, x2 = 0	0.0139	0.0198	0.0251	0.0279
x1 = 5.683e-05, x2 = 0	0.0162	0.0224	0.0283	0.0313
x1 = 6.362e-05, x2 = 0	0.0186	0.0244	0.0315	0.0347
x1 = 7.036e-05, x2 = 0	0.0202	0.027	0.0345	0.0381
x1 = 7.703e-05, x2 = 0	0.0225	0.0296	0.0375	0.0414
x1 = 8.364e-05, x2 = 0	0.0247	0.0321	0.0405	0.0448
x1 = 9.018e-05, x2 = 0	0.0269	0.0347	0.0432	0.0481
x1 = 9.658e-05, x2 = 0	0.0286	0.0371	0.0461	0.0513
x1 = 0.0001031, x2 = 0	0.0307	0.0395	0.0491	0.0543
x1 = 0.0001094, x2 = 0	0.0328	0.0419	0.0517	0.0573
x1 = 0.0001157, x2 = 0	0.035	0.0442	0.0544	0.0602
x1 = 0.000122, x2 = 0	0.037	0.0466	0.0568	0.0632
x1 = 0.0001281, x2 = 0	0.039	0.0488	0.0602	0.0659
x1 = 0.0001342, x2 = 0	0.0411	0.0509	0.0625	0.0687
x1 = 0.0001404, x2 = 0	0.0425	0.0524	0.0647	0.0711
x1 = 0.0001465, x2 = 0	0.0432	0.0543	0.0667	0.0734
x1 = 0.0001524, x2 = 0	0.0444	0.0559	0.0685	0.0755
x1 = 0.0001584, x2 = 0	0.0452	0.0571	0.0701	0.0774
x1 = 0.0001641, x2 = 0	0.0462	0.0582	0.0716	0.079
x1 = 0.0001699, x2 = 0	0.0469	0.0592	0.0729	0.0805
x1 = 0.0001757, x2 = 0	0.0478	0.0601	0.0742	0.0819
x1 = 0.0001814, x2 = 0	0.0487	0.0609	0.0753	0.0832
x1 = 0.000187, x2 = 0	0.0495	0.0617	0.0764	0.0845
x1 = 0.0001928, x2 = 0	0.0501	0.0626	0.0775	0.0857
x1 = 0.0001982, x2 = 0	0.0507	0.0634	0.0785	0.0868
x1 = 0.0002038, x2 = 0	0.0513	0.0641	0.0796	0.0879
x1 = 0.0002092, x2 = 0	0.0517	0.0648	0.0805	0.089
x1 = 0.0002147, x2 = 0	0.0521	0.0654	0.0815	0.0902
x1 = 0.00022, x2 = 0	0.0527	0.066	0.0824	0.0912
x1 = 0.0002254, x2 = 0	0.0532	0.0666	0.0834	0.0924
x1 = 0.0002306, x2 = 0	0.0537	0.0673	0.0843	0.0936
x1 = 0.0002358, x2 = 0	0.0542	0.068	0.0852	0.0946
x1 = 0.0002411, x2 = 0	0.0548	0.0686	0.0861	0.0956
x1 = 0.0002463, x2 = 0	0.0554	0.0693	0.087	0.0966

Cc1ccccc1 + CCCC[N+]1(C)CCCC1.O=S(=O)([N-]S(=O)(=O)C(F)(F)F)C(F)(F)F
Conditions	viscosity [mPa·s]
308.15 K, 100 kPa, x1 = 1	0.509

CCCCCCCCn1cc[n+](C)c1.[Cl-] + CCO
viscosity [mPa·s], 101 kPa
Conditions	x2 = 0.0449	x2 = 0.1305	x2 = 0.6858	x2 = 0.8809	x2 = 0.9794
298.15 K	12600	5400	–	–	–
313.15 K	–	–	14.6	–	1.061
328.15 K	830	–	9.12	1.997	0.819

CCCCn1n[n+](CC)c2ccccc21.F[P-](F)(F)(F)(F)F + c1c[nH]cn1
101.3 kPa, x2 = 0.6993
Conditions	electrical conductivity [S/m]	viscosity [mPa·s]
343 K	1.1	11
353 K	1.4	7.7
363 K	1.8	5.6
373 K	2.2	5.2
383.1 K	2.9	4.2
393.1 K	3.2	3.6
403.1 K	3.8	3.1

NC(N)=O + O + CCCC[n+]1ccn(C)c1.F[B-](F)(F)F
298.15 K, 100 kPa
Conditions	viscosity [mPa·s]
x1 = 0.008492, x2 = 0.9402	1.98
x1 = 0.01695, x2 = 0.9318	2.01
x1 = 0.02496, x2 = 0.9237	2.06
x1 = 0.03322, x2 = 0.9155	2.05
x1 = 0.0408, x2 = 0.9079	2.15

CCCCCCCCCCCCCCCC[N+](C)(C)C.[Br-] + OC[C@@H](O)[C@@H](O)[C@H](O)[C@@H](O)CO + O
viscosity [mPa·s], 100 kPa
Conditions	298.15 K	308.15 K	318.15 K
x2 = 0, x1 = 7.21e-06	0.896	0.742	0.617
x2 = 0, x1 = 1.442e-05	0.898	0.744	0.617
x2 = 0, x1 = 2.162e-05	0.9	0.745	0.617

COC(=O)OC + CCCC[n+]1ccn(C)c1.O=S(=O)([N-]S(=O)(=O)C(F)(F)F)C(F)(F)F
viscosity [mPa·s], 101.3 kPa
Conditions	288.15 K	293.15 K	298.15 K	303.15 K	308.15 K	313.15 K
x2 = 0	0.668	0.628	0.588	0.553	0.524	–
x2 = 0.003644	0.699	0.653	0.611	0.575	0.541	0.511
x2 = 0.004269	0.706	0.659	0.616	0.58	0.545	0.515
x2 = 0.005082	0.715	0.667	0.624	0.586	0.551	0.52
x2 = 0.005901	0.722	0.674	0.631	0.593	0.557	0.525
x2 = 0.00751	0.741	0.69	0.646	0.606	0.57	0.537
x2 = 0.008724	0.746	0.695	0.651	0.61	0.575	0.541
x2 = 0.009626	0.749	0.7	0.657	0.617	0.583	0.549
x2 = 0.01106	0.781	0.727	0.678	0.636	0.597	0.562
x2 = 0.012	0.792	0.737	0.687	0.644	0.605	0.57
x2 = 0.01269	0.801	0.744	0.695	0.651	0.61	0.576
x2 = 0.01439	0.817	0.759	0.708	0.663	0.621	0.586
x2 = 0.01534	0.827	0.768	0.717	0.671	0.629	0.592
x2 = 0.01537	0.827	0.768	0.717	0.671	0.629	0.592
x2 = 0.01726	0.847	0.786	0.734	0.686	0.643	0.604
x2 = 0.01986	0.874	0.811	0.755	0.706	0.662	0.621
x2 = 0.02243	0.902	0.836	0.778	0.728	0.681	0.641
x2 = 0.02369	0.914	0.847	0.788	0.736	0.689	0.648
x2 = 0.02616	0.937	0.869	0.808	0.754	0.706	0.663
x2 = 0.02694	0.945	0.876	0.814	0.759	0.711	0.668
x2 = 0.02906	0.968	0.897	0.834	0.778	0.728	0.683
x2 = 0.03392	1.016	0.94	0.873	0.814	0.76	0.714
x2 = 0.03978	1.072	0.991	0.921	0.857	0.802	0.751
x2 = 0.04295	1.102	1.019	0.945	0.88	0.822	0.77
x2 = 0.04638	1.134	1.048	0.971	0.904	0.845	0.791

CC[n+]1ccn(C)c1.N#C[S-] + CS(C)=O
101 kPa, x1 = 0.3333
Conditions	viscosity [mPa·s]
293.15 K	3.24
308.15 K	2.36
328.15 K	1.57
